Measured values published in patent publication US20240116882A1, “NOVEL BENZOTRIAZOLE DERIVATIVE HAVING INHIBITORY ACTIVITY AGAINST ECTONUCLEOTIDE PYROPHOSPHATASE-PHOSPHODIESTERASE, AND USE THEREOF” (TXINNO BIOSCIENCE INC., priority 2021, published 2024).

What follows are compounds tested against T1, human recombinant ENPP1 enzymes (Homo sapiens, UniProt P22413) (assay: ENPP1 Enzyme Assay with cGAMP Substrate (AMP-Glo)). Settings: human recombinant ENPP1, cGAMP 5 μM, 37° C. 90 minutes, AMP-Glo luminescence; read-out: Enzymatic activity (IC50).
T1 construct: purchased R & D systems
T1 sequence (P22413 1-925): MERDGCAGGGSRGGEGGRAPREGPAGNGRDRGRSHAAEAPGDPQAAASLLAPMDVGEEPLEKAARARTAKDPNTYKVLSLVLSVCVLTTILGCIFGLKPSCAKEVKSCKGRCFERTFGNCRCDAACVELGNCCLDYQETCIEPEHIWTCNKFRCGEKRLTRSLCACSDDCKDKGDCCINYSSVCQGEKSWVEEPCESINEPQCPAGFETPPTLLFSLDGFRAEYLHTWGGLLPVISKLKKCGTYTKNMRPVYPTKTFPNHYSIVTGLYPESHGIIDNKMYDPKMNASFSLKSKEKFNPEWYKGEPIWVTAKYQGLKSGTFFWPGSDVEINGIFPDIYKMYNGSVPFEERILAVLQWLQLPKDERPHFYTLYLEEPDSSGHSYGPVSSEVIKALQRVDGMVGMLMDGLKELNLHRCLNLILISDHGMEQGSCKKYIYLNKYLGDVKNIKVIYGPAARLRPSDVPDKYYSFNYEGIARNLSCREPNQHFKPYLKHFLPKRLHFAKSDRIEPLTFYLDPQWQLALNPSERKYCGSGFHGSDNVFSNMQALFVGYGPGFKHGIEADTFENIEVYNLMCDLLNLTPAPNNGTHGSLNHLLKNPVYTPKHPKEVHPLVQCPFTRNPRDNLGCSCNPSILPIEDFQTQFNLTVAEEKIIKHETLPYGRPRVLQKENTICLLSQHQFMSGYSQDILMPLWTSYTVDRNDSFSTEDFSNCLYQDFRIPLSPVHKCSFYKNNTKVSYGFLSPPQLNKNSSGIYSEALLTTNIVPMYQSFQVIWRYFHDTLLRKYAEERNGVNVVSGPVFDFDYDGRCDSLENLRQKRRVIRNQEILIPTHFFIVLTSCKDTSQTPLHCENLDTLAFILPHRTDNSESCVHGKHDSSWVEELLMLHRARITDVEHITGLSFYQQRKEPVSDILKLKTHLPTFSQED
Assay type: biochemical
Summary of the method: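 Recombinant human ENPP1 (3 ng/reaction) preincubated 5 to 10 min at RT with inhibitor (typically 10 μM to 0.5 nM), then 5 μM cGAMP added, 90 min at 37° C in Tris pH 8.5, 250 mM NaCl, CaCl2, ZnCl2, 1% DMSO. AMP product read by AMP-Glo luminescence; IC50 from 3-parameter fit, averaged over repeats.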

Row | Structure (SMILES) | IC50 [µM]
1 | CCOP(=O)(NCc1ccc(-n2nnc3cc(OC)ccc32)c(F)c1)OCC [Example 117, diethyl-(3-fluoro-4-(5-methoxy-1H-benzo[d][1,2,3]triazol-1-yl)benzyl)phosphoamidite] | > 10
2 | COc1ccc2c(c1)nnn2-c1ccc(P(=O)(O)O)cc1 [Example 118] | > 10
3 | COc1ccc2c(ccn2-c2ccc(CNS(N)(=O)=O)cc2)c1 [Example 122, N-(4-(5-methoxy-1H-indol-1-yl)benzyl)sulfamide] | > 10

Further lines, results first:

Row | IC50 [µM] | Structure (SMILES)
4 | > 10 | COc1ccc2c(c1)nnn2-c1ccc(C(=O)O)cc1F [Example 116, 3-fluoro-4-(5-methoxy-1H-benzo[d][1,2,3]triazol-1-yl)benzoic Acid]
5 | < 1 | COc1ccc2c(c1)nnn2-c1ccc(CP(=O)(O)O)cc1 [Example 119]
